Reference: patent publication US20100137313A1 (ASTRAZENECA AB, priority 2008, published 2010)

Each compound was assayed against S. pneumoniae Topoisomerase IV ATPase (ParE) (Streptococcus pneumoniae serotype 4, UniProt Q59961) (assay: S. pneumoniae Topoisomerase IV ATPase inhibition). Settings: values marked * are an average of two or more data points, 13 µM.
Assay type: biochemical
Outline: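 ParE ATPase (1.25 nM) run with 160 μM ATP and 5 μg/ml sheared salmon sperm DNA in Tris pH 8.0, Mg2+, glycerol, DTT, Brij-35. Phosphate released read by malachite green/molybdate absorbance at 650 nm. IC50 from 10 compound concentrations; DMSO (2%) as 0% and EDTA (20 μM) as 100% inhibition.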

S. pneumoniae Topoisomerase IV ATPase (ParE), sequence (Q59961 whole entry): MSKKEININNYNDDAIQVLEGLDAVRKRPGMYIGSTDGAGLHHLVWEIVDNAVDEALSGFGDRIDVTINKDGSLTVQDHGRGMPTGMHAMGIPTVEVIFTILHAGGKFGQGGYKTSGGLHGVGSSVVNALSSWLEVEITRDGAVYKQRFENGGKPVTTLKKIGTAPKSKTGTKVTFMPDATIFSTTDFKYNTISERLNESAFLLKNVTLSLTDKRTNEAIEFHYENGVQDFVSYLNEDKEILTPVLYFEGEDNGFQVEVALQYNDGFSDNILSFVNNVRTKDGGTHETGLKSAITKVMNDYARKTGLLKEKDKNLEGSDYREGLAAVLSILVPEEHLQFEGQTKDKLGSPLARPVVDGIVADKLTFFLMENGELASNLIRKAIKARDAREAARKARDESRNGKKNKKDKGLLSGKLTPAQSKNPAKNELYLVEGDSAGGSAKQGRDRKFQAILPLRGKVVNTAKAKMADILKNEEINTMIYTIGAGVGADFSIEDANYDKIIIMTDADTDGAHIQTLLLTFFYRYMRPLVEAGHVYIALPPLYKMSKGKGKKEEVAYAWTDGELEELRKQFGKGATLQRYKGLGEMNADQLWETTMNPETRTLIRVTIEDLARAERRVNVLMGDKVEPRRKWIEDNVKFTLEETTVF

| Structure (SMILES) | % Inh (13 μM) of S. pneumoniae Topoisomerase IV ATPase [%] |
| --- | --- |
| COc1ccc(C(=O)O)cc1-c1cnc(Nc2ccc(F)c(Cl)c2)nc1-n1ccc(C(F)(F)F)n1 [Example 1138, 3-(2-(3-chloro-4-fluorophenylamino)-4-(3-(trifluoromethyl)-1H-pyrazol-1-yl)pyrimidin-5-yl)-4-methoxybenzoic acid] | 94 |

Same assay, conditions: values marked * are an average of two or more data points, read-out: % Inh (13 μM) of S. pneumoniae Topoisomerase IV ATPase

| Structure (SMILES) | inhibition at 13 µM [%] |
| --- | --- |
| Cn1cncc1CNc1nc(Nc2ccc(F)c(Cl)c2)ncc1-c1cccc(/C=C/C(=O)O)c1 [Example 296, (E)-3-(3-(2-(3-chloro-4-fluorophenylamino)-4-((1-methyl-1H-imidazol-5-yl)methylamino)pyrimidin-5-yl)phenyl)acrylic acid] | 77.6 |
| COc1cc(Nc2ncc(-c3cnc(-n4cncn4)c(C(=O)O)c3)c(-n3ccc(C(F)(F)F)n3)n2)cc(OC)c1 [Example 588, 5-(2-(3,5-dimethoxyphenylamino)-4-(3-(trifluoromethyl)-1H-pyrazol-1-yl)pyrimidin-5-yl)-2-(1H-1,2,4-triazol-1-yl)nicotinic acid] | 100 |
| Cc1cc(C)n(-c2nc(Nc3ccc(F)c(Cl)c3)ncc2-c2cncnc2)n1 [Example 82, N-(3-chloro-4-fluorophenyl)-4-(3,5-dimethyl-1H-pyrazol-1-yl)-5,5′-bipyrimidin-2-amine] | 80.1 |
| CCOC(=O)/C=C/c1cccc(-c2cnc(Nc3ccc(F)c(Cl)c3)nc2N2CCN(C(=O)N(C)C)CC2)c1 [Example 164, (E)-ethyl 3-(3-(2-(3-chloro-4-fluorophenylamino)-4-(4-(dimethylcarbamoyl)piperazin-1-yl)pyrimidin-5-yl)phenyl)acrylate] | 47 |
| O=C(O)/C=C/c1cccc(-c2cnc(Nc3cc(F)cc(F)c3)nc2N2CCOCC2)c1 [Example 404, (E)-3-{3-[2-(3,5-Difluoro-phenylamino)-4-morpholin-4-yl-pyrimidin-5-yl]-phenyl}-acrylic acid] | 81 |
| CNC(=O)c1cc(-c2cnc(Nc3cc(OC)cc(OC)c3)nc2-n2ccc(C(F)(F)F)n2)cnc1OC [Example 809, 5-{2-[(3,5-dimethoxyphenyl)amino]-4-[3-(trifluoromethyl)-1H-pyrazol-1-yl]pyrimidin-5-yl}-2-methoxy-N-methylpyridine-3-carboxamide] | 100 |
| O=C(O)c1cncc(-c2cnc(Nc3ccc(F)c(Cl)c3)nc2N2CCCCC2)c1 [Example 275, 5-(2-(3-chloro-4-fluorophenylamino)-4-(piperidin-1-yl)pyrimidin-5-yl)nicotinic acid] | 134 |
| O=C(O)c1cncc(-c2cnc(Nc3ccc(F)c(Cl)c3)nc2-n2cc(-c3ccncc3)cn2)c1 [Example 308, 5-{2-[(3-chloro-4-fluorophenyl)amino]-4-[4-(pyridin-4-yl)-1H-pyrazol-1-yl]pyrimidin-5-yl}pyridine-3-carboxylic acid] | 101 |
| Fc1ccc(Nc2ncc(-c3cncnc3)c(N3CCC(F)CC3)n2)cc1Cl [Example 64, N-(3-chloro-4-fluorophenyl)-4-(4-fluoropiperidin-1-yl)-5-pyrimidin-5-ylpyrimidin-2-amine] | 65.4 |
| CCn1cc(-c2cnc(Nc3cc(C)cc(OC)c3)nc2-n2nc(C(F)(F)F)cc2C)cc(C(=O)O)c1=O [Example 863, 1-ethyl-5-{2-[(3-methoxy-5-methylphenyl)amino]-4-[5-methyl-3-(trifluoromethyl)-1H-pyrazol-1-yl]pyrimidin-5-yl}-2-oxo-1,2-dihydropyridine-3-carboxylic acid] | 100 |
| CONC(=O)c1cc(-c2cnc(Nc3cc(OC)cc(OC)c3)nc2-n2nc(C(F)(F)F)cc2C)cnc1OC [Example 810, 5-{2-[(3,5-dimethoxyphenyl)amino]-4-[5-methyl-3-(trifluoromethyl)-1H-pyrazol-1-yl]pyrimidin-5-yl}-N,2-dimethoxypyridine-3-carboxamide] | 100 |
| Cc1cnc(CNc2nc(Nc3ccc(F)c(Cl)c3)ncc2-c2cncnc2)cn1 [Example 58, N^2-(3-chloro-4-fluorophenyl)-N^4-[(5-methylpyrazin-2-yl)methyl]-5-pyrimidin-5-ylpyrimidine-2,4-diamine] | 58 |
